Like-named read-outs stand apart in the source and are kept apart here.
Legend:
[1] = Assay C: permeability in CACO-2 cells; format: in vitro ADME; conditions: human
Experimental: Caco-2 cells (1-2×10^5 cells/1 cm^2 area) are seeded on filter inserts (Costar transwell polycarbonate or PET filters, 0.4 μm pore size) and cultured (DMEM) for 10 to 25 days. Compounds are dissolved in appropriate solvent (like DMSO, 1-20 mM stock solutions). […] The transport solution (TL) is applied to the apical or basolateral donor side for measuring A-B or B-A permeability (3 filter replicates), respectively. Samples are collected at the start and end of experiment from the donor and at various time intervals for up to 2 hours also from the receiver side for concentration measurement by HPLC-MS/MS or scintillation counting. Sampled receiver volumes are replaced with fresh receiver solution.
Efflux ratio(ER)=permeabilityB−A/permeabilityA−B

[2] = tested on: SIRPα signalling induced by A549 cells; experiment: Assay B: SIRPα signalling assay using A549 cells; format: cell-based; conditions: Homo sapiens
Experimental: (§1) Two cell types are independently used: the Raji cell line (lymphoblast-like human cell line derived from B lymphocytes from a Burkitt's lymphoma patient in 1963) and A549 cells (adenocarcinoma human alveolar basal epithelial cells).
(§2) Test compounds were dissolved in 100% DMSO and serially diluted into a white 384-well microtiter cell culture plate (PerkinElmer #60076780 in case of Raji assay; PDL-coated plates Greiner #781945 in case of A549 assay). 5000 Raji cells (ATCC #CC86) or 5000 A549 cells (ATCC #CCL-185) in Assay Complete Cell Plating reagent 30 (DiscoverX 93-0563R30B) were added per well. The assay plate was incubated for 48 h at 37° C., 95% humidity and 5% CO2. 15000 reporter cells (Jurkat PathHunter SIRPαV1, DiscoverX #93-1135C19) were added to each well, and the plate was incubated for 5 h at 37° C., 95% humidity and 5% CO2. Bioassay reagent 1 of the PathHunter Bioassay detection kit (DiscoverX 93-0001) was added to each well of the plate using a multichannel pipette followed by a 15 min incubation at room temperature. Afterwards bioassay reagent 2 was added followed by 60 min incubation at room temperature (incubation in the dark).
(§3) The analysis of the data was performed using the luminescence signal generated by beta-galactosidase in the PathHunter reporter cell line. The luminescence measurement was done using a Pherastar Multi-Mode Reader. Dose-response curves & IC50 data were calculated with 4-parameter sigmoidal dose response formula.

QPCTL = target: T1, QPCTL (Homo sapiens, UniProt Q9NXS2); experiment: Assay A: biochemical QPCTL activity assay (MALDI-TOF MS, CD47 peptide substrate); conditions: compounds of the invention; 0.5 nM enzyme, 10 μM CD47 peptide substrate; read-out: Inhibition of QPCTL: IC50
T1 construct: made in house
T1 sequence (Q9NXS2 whole entry): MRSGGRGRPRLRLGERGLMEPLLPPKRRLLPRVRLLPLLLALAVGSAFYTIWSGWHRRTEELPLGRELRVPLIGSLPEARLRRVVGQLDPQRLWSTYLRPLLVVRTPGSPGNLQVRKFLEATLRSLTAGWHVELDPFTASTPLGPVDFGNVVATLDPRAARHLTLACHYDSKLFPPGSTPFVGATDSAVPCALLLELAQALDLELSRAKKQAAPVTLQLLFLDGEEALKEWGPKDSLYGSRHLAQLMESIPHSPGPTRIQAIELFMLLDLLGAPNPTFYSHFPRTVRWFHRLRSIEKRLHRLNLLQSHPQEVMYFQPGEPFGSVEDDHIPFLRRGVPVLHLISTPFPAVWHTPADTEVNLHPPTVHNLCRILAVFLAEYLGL
Experimental: (§4) QPCT or QPCTL dependent conversion of N-terminal glutamine to pyroglutamate of CD47 was monitored via MALDI-TOF MS. Test compounds were dissolved in 100% DMSO and serially diluted into clear 1,536-well microtiter plates. Enzymatic reactions were set up in assay buffer containing 20 mM Tris pH 7.5, 0.1 mM TCEP, 0.01% BSA, and 0.001% Tween20. […] The plates were incubated for 10 min in a humidified incubator at 24° C. Subsequently, 2.5 μL of CD47 peptide substrate surrogate (^19[…]^33) was added to each well (final concentration: 10 μM for QPCTL/20 μM for QPCT). The plates were mixed for 30 sec at 1,000 rpm and subsequently incubated for 40 min in a humidified incubator at 24° C. […] The plates were sealed with an adhesive foil, mixed for 30 s at 1,000 rpm and stored at room temperature until preparation of the MALDI target plates. […] QPCT or QPCTL activity was monitored by calculating the ratio between product and internal standard signals followed by normalization to high (100% activity) and low (0% activity) controls. Determination of compound potencies was obtained by fitting the dose-response data to a four-parameter logistical equation.

QPCT = target: T2, QPCT (Homo sapiens, UniProt Q16769); experiment: Assay A: biochemical QPCT activity assay (MALDI-TOF MS, CD47 peptide substrate); conditions: compounds of the invention; 0.5 nM enzyme, 20 μM CD47 peptide substrate; read-out: Inhibition of QPCT: IC50
T2 construct: purchased Origine (so in the source)
T2 sequence (Q16769 29-361): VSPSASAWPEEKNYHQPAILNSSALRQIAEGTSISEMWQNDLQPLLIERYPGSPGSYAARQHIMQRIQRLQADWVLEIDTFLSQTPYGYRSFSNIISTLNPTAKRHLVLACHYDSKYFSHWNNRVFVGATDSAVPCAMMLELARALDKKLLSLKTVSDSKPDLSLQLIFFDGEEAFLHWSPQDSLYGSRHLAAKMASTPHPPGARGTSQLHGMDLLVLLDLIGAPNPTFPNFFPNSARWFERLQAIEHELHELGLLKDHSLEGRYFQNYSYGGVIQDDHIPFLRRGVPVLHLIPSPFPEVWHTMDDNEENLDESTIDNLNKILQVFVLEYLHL
Experimental: as §4

[3] = tested on: SIRPα signalling induced by Raji cells; experiment: Assay B: SIRPα signalling assay using Raji cells; format: cell-based; conditions: Homo sapiens, read-out: Inhibition of SIRPα signalling induced by Raji cells: IC50
Experimental: as §1, §2, §3

[4] = compounds of the invention, A549 cells 48 h, Jurkat PathHunter SIRPαV1 reporter cells 5 h, read-out: Inhibition of SIRPα signalling induced by A549 cells: IC50
[5] = compounds of the invention, Raji cells 48 h, Jurkat PathHunter SIRPαV1 reporter cells 5 h
[6] = pH 7.2, compounds of the invention, Caco-2, permeability B-A / permeability A-B
[7] = compounds of the invention, Caco-2, apical to basolateral, pH 7.2

Row | Compound | Papp A→B at 2 h ([1]; Caco-2, pH 7.2) [×10⁻⁶ cm/s] | efflux ratio at 2 h ([1]; Caco-2, pH 7.2) | IC50 [2, 4] [nM] | IC50 (QPCTL) [nM] | IC50 (QPCT) [nM] | IC50 [3, 5] [nM] | efflux ratio at 2 h [1, 6] | Papp A→B at 2 h [1, 7] [×10⁻⁶ cm/s] | IC50 ([2]; A549, read-out: Inhibition of SIRPα signalling induced by A549 cells: IC50) [nM] | IC50 ([3]; Raji) [nM] | IC50 ([2]; prior art compounds, A549 cells 48 h, Jurkat PathHunter SIRPαV1 reporter cells 5 h, read-out: Inhibition of SIRPα signalling induced by A549 cells: IC50) [nM] | IC50 ([3]; prior art compounds, Raji cells 48 h, Jurkat PathHunter SIRPαV1 reporter cells 5 h) [nM]
1 | Nc1nnc(C2CCN(c3ncccc3-c3ccc(F)nc3)CC2)s1 [Compound 1095] | 68 | 0.5 | – | – | – | – | – | – | – | – | – | –
2 | CC(C)n1nc2ncc(-c3nc(C4CC4)cc(C#N)c3N3CCC(F)(c4nncn4C)CC3)cc2c1F [Example 30] | – | – | 20 | 1 | 1 | 25 | 9.4 | 9.4 | – | – | – | –
3 | Cn1cnnc1C1(F)CCN(c2c(C#N)ccnc2-c2cnc3nn(C(F)(F)F)nc3c2)CC1 [Example 18] | – | – | 292 | 33 | 52 | 942 | 2.8 | 27 | – | – | – | –
4 | Cn1cnnc1C1(F)CCN(c2c(C#N)cc(C(F)(F)F)nc2-c2cnc(F)cc2Cl)CC1 [Example 10] | – | – | 201 | 10 | 27 | 352 | 1.2 | 58 | – | – | – | –
5 | Cn1cnnc1C1(F)CCN(c2c(C#N)ccnc2-n2cnc3nc(C(F)(F)F)ccc32)CC1 [Example 24] | – | – | 349 | 7 | 11 | 321 | 14.1 | 1 | – | – | – | –
6 | Cn1cnnc1C1(F)CCN(c2c(C#N)cc(C(F)(F)F)nc2-c2cnc3nn(C(C)(C)C)cc3c2)CC1 [Example 1] | – | – | 17 | 1 | 1 | 9 | 6.4 | 5.3 | – | – | – | –
7 | Cn1cnnc1C1(F)CCN(c2c(C#N)cc(C3CC3)nc2-c2cnc3nn(C(C)(C)C)c(F)c3c2)CC1 [Example 29] | – | – | 45 | 1 | 1 | 17 | 2.7 | 29 | – | – | – | –
8 | Cn1cnnc1C1CCN(c2c(C#N)cc(C(F)(F)F)nc2-c2cnc3nn(C(C)(C)C)c(C(F)(F)F)c3c2)CC1 [Example 13] | – | – | 70 | 8 | 16 | 54 | 5.7 | 3.7 | – | – | – | –
9 | Cc1cnc(-c2ccc(F)nc2)c(N2CCC(F)(c3nncn3C)CC2)c1C#N [Example 41] | – | – | 16 | 1 | 2 | 71 | 2.6 | 28 | – | – | – | –
10 | Cn1cnnc1C1CCN(c2ncccc2-c2cccnc2)CC1 [SEN180, reference compound] | 4.2 | – | – | – | – | – | – | – | – | – | – | –
11 | Cn1cnnc1C1(F)CCN(c2c(C#N)cc(Cl)nc2-c2cnc3nn(C(C)(C)C)cc3c2)CC1 [Example 36] | – | – | 13 | 1 | < 1 | 9 | 13.3 | 5.8 | – | – | – | –
12 | Cn1cnnc1C1(F)CCN(c2c(C#N)cc(C(F)(F)F)nc2-c2cnc3nn(C(C)(C)C)c(Cl)c3c2)CC1 [Example 3] | – | – | 28 | 1 | 1 | 14 | 1 | 47 | – | – | – | –
13 | Cn1cnnc1C1(F)CCN(c2c(C#N)ccnc2-c2cnc3nn(C(C)(C)C)c(Cl)c3c2)CC1 [Example 14] | – | – | 12 | 1 | < 1 | 21 | 6.9 | 12 | – | – | – | –
14 | Nc1ncc(C2CCN(c3ncccc3-c3ccc(F)nc3)CC2)s1 [Compound 1094] | 73 | 1 | – | – | – | – | – | – | – | – | – | –
15 | Cn1cnnc1C1(F)CCN(c2c(C#N)cc(C(F)(F)F)nc2-c2cnc3nn(C(F)(F)F)cc3c2)CC1 [Example 5] | – | – | 67 | 2 | 4 | 41 | 8.2 | 6.1 | – | – | – | –
16 | Cn1cnnc1C1CCN(c2ncccc2-c2ccc(F)nc2)CC1 [SEN177, reference compound] | 11 | – | – | – | – | – | – | – | 214 | 1360 | – | –
17 | Cn1cnnc1C1(F)CCN(c2c(C#N)cc(C(F)(F)F)nc2-c2cnc3nn(C(C)(C)C)c(F)c3c2)CC1 [Example 2] | – | – | 53 | 1 | 1 | 17 | 4.9 | 16 | – | – | – | –
18 | Cc1cc(C#N)c(N2CCC(F)(c3nncn3C)CC2)c(-c2cnc3nn(C(C)(C)C)c(F)c3c2)n1 [Example 25] | – | – | 7 | 1 | 1 | 9 | 9.9 | 7.6 | – | – | – | –
19 | Cn1cnnc1C1(F)CCN(c2c(C#N)cc(C3CC3)nc2-c2ccc(F)nc2)CC1 [Example 31] | – | – | 41 | 2 | 4 | 87 | 1.4 | 62 | – | – | – | –
20 | Cn1cnnc1C1(F)CCN(c2c(C#N)cc(C(C)(F)F)nc2-c2cnc3nn(C(C)(C)C)cc3c2)CC1 [Example 32] | – | – | 21 | 1 | 1 | 4 | 8.2 | 8.2 | – | – | – | –
21 | Cn1cnnc1C1(F)CCN(c2c(C#N)ccnc2-c2cccnc2)CC1 [Example 19] | – | – | 410 | 18 | 62 | 2190 | 2.6 | 11 | – | – | – | –
22 | Cn1cnnc1C1(F)CCN(c2c(C#N)cc(C(F)(F)F)nc2-c2cnc3nn(C(F)(F)F)nc3c2)CC1 [Example 9] | – | – | 365 | 56 | 100 | 869 | 1.4 | 45 | – | – | – | –
23 | Cn1cnnc1C1(F)CCN(c2c(C#N)ccnc2-c2cnc3nn(C(F)(F)F)cc3c2)CC1 [Example 16] | – | – | 9 | 1 | 1 | 37 | 7.7 | 3.1 | – | – | – | –
24 | Cn1cnnc1C1(F)CCN(c2c(C#N)ccnc2-c2cnc3nn(C(C)(C)C)nc3c2)CC1 [Example 17] | – | – | 40 | 2 | 2 | 102 | 13.9 | 7.2 | – | – | – | –
25 | Cn1cnnc1C1(F)CCN(c2c(-c3ccc(F)nc3)ncc(Cl)c2C#N)CC1 [Example 39] | – | – | 106 | 3 | 6 | 247 | 2.9 | 16 | – | – | – | –
26 | Cc1cc(C#N)c(N2CCC(F)(c3nncn3C)CC2)c(-c2cnc3nn(C(C)(C)C)c(C(F)(F)F)c3c2)n1 [Example 27] | – | – | 34 | 2 | 2 | 26 | 2.4 | 38 | – | – | – | –
27 | Cn1cnnc1C1CCN(S(=O)(=O)c2cccc(Nc3ccc(OCc4ccccc4)nc3)c2)CC1 [Compound 23] | – | – | – | – | – | – | – | – | – | – | > 10000 | > 10000
